Data: PubChem BioAssay (NCI)
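How tested: cells in 96-well plates exposed to compound for 48 hours at five concentrations. TGI: total growth inhibition.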

Experiments:
Experiment in all cases: DTP human tumour cell line panel, 48 h
[1] = test system: 786-0 renal
[2] = test system: A498 renal
[3] = test system: A549 NSCLC
[4] = test system: ACHN renal
[5] = test system: BT-549 breast
[6] = test system: CAKI-1 renal
[7] = test system: CCRF-CEM leukemia
[8] = test system: COLO 205 colon
[9] = test system: DU-145 prostate
[10] = test system: EKVX NSCLC
[11] = test system: HCC-2998 colon
[12] = test system: HCT-116 colon
[13] = test system: HCT-15 colon
[14] = test system: HL-60(TB) leukemia
[15] = test system: HOP-62 NSCLC
[16] = test system: HOP-92 NSCLC
[17] = test system: HS 578T breast
[18] = test system: HT29 colon
[19] = test system: IGROV1 ovarian
[20] = test system: K-562 leukemia
[21] = test system: KM12 colon
[22] = test system: M14 melanoma
[23] = test system: MCF7 breast
[24] = test system: MDA-MB-231 breast
[25] = test system: MDA-MB-435
[26] = test system: MOLT-4 leukemia
[27] = test system: NCI-H226 lung
[28] = test system: NCI-H23 lung
[29] = test system: NCI-H460 lung
[30] = test system: NCI-H522 lung
[31] = test system: NCI/ADR-RES ovarian
[32] = test system: OVCAR-3 ovarian
[33] = test system: OVCAR-4 ovarian
[34] = test system: OVCAR-5 ovarian
[35] = test system: OVCAR-8 ovarian
[36] = test system: PC-3 prostate
[37] = test system: RPMI-8226 leukemia
[38] = test system: RXF 393 renal
[39] = test system: SF-268 CNS
[40] = test system: SF-295 CNS
[41] = test system: SF-539 CNS
[42] = test system: SK-MEL-2 melanoma
[43] = test system: SK-MEL-28 melanoma
[44] = test system: SK-MEL-5 melanoma
[45] = test system: SK-OV-3 ovarian
[46] = test system: SN12C renal
[47] = test system: SNB-19 CNS
[48] = test system: SNB-75 CNS
[49] = test system: SW-620 colon
[50] = test system: T-47D breast
[51] = test system: TK-10 renal
[52] = test system: U251 CNS
[53] = test system: UACC-257 melanoma
[54] = test system: UACC-62 melanoma
[55] = test system: UO-31 renal
[56] = test system: LOX IMVI melanoma
[57] = test system: MALME-3M melanoma
[58] = test system: SR leukemia

Q: With `COc1ccc2c(c1)C(=O)OCCC2` as the compound, how does the TGI [1] read?
A: > 100 µM

Q: And the TGI [2]?
A: > 100 µM

Q: What about the TGI [3] of the same compound?
A: > 100 µM

Q: What about the TGI [4] of the same compound?
A: > 100 µM

Q: What about the TGI [5] of the same compound?
A: > 100 µM

Q: And the TGI [6]?
A: > 100 µM

Q: And the TGI [7]?
A: > 100 µM

Q: What about the TGI [8] of the same compound?
A: > 100 µM

Q: What about the TGI [9] of the same compound?
A: > 100 µM

Q: What about the TGI [10] of the same compound?
A: > 100 µM

Q: What about the TGI [11] of the same compound?
A: > 100 µM

Q: And the TGI [12]?
A: > 100 µM

Q: And the TGI [13]?
A: > 100 µM

Q: What about the TGI [14] of the same compound?
A: > 100 µM

Q: What about the TGI [15] of the same compound?
A: > 100 µM

Q: What about the TGI [16] of the same compound?
A: > 100 µM

Q: And the TGI [17]?
A: > 100 µM

Q: What about the TGI [18] of the same compound?
A: > 100 µM

Q: What about the TGI [19] of the same compound?
A: > 100 µM

Q: What about the TGI [20] of the same compound?
A: > 100 µM

Q: And the TGI [21]?
A: > 100 µM

Q: What about the TGI [22] of the same compound?
A: > 100 µM

Q: What about the TGI [23] of the same compound?
A: > 100 µM

Q: What about the TGI [24] of the same compound?
A: > 100 µM

Q: And the TGI [25]?
A: > 100 µM

Q: What about the TGI [26] of the same compound?
A: > 100 µM

Q: What about the TGI [27] of the same compound?
A: > 100 µM

Q: And the TGI [28]?
A: > 100 µM

Q: What about the TGI [29] of the same compound?
A: > 100 µM

Q: What about the TGI [30] of the same compound?
A: > 100 µM

Q: And the TGI [31]?
A: > 100 µM

Q: And the TGI [32]?
A: > 100 µM

Q: What about the TGI [33] of the same compound?
A: > 100 µM

Q: And the TGI [34]?
A: > 100 µM

Q: What about the TGI [35] of the same compound?
A: > 100 µM

Q: What about the TGI [36] of the same compound?
A: > 100 µM

Q: And the TGI [37]?
A: > 100 µM

Q: And the TGI [38]?
A: > 100 µM

Q: What about the TGI [39] of the same compound?
A: > 100 µM

Q: What about the TGI [40] of the same compound?
A: > 100 µM

Q: And the TGI [41]?
A: > 100 µM

Q: And the TGI [42]?
A: > 100 µM

Q: And the TGI [43]?
A: > 100 µM

Q: What about the TGI [44] of the same compound?
A: > 100 µM

Q: What about the TGI [45] of the same compound?
A: > 100 µM

Q: What about the TGI [46] of the same compound?
A: > 100 µM

Q: And the TGI [47]?
A: > 100 µM

Q: And the TGI [48]?
A: > 100 µM

Q: What about the TGI [49] of the same compound?
A: > 100 µM

Q: What about the TGI [50] of the same compound?
A: > 100 µM

Q: And the TGI [51]?
A: > 100 µM

Q: What about the TGI [52] of the same compound?
A: > 100 µM

Q: And the TGI [53]?
A: > 100 µM

Q: And the TGI [54]?
A: > 100 µM

Q: And the TGI [55]?
A: > 100 µM

Q: How did the TGI [1] turn out when `c1ccc2nc3c(nc2c1)sc1ccccc13` was run?
A: 64.2 µM

Q: What about the TGI [2] of the same compound?
A: 78.2 µM

Q: What about the TGI [3] of the same compound?
A: > 100 µM

Q: And the TGI [4]?
A: 35.7 µM

Q: And the TGI [5]?
A: > 100 µM

Q: And the TGI [6]?
A: 30.2 µM

Q: What about the TGI [7] of the same compound?
A: > 100 µM

Q: What about the TGI [8] of the same compound?
A: > 100 µM

Q: What about the TGI [9] of the same compound?
A: > 100 µM

Q: What about the TGI [10] of the same compound?
A: 96.2 µM

Q: What about the TGI [11] of the same compound?
A: > 100 µM

Q: What about the TGI [12] of the same compound?
A: > 100 µM

Q: What about the TGI [13] of the same compound?
A: > 100 µM

Q: And the TGI [14]?
A: > 100 µM

Q: What about the TGI [15] of the same compound?
A: 73.6 µM

Q: And the TGI [17]?
A: > 100 µM

Q: And the TGI [18]?
A: > 100 µM

Q: And the TGI [19]?
A: 51 µM

Q: And the TGI [20]?
A: > 100 µM

Q: What about the TGI [21] of the same compound?
A: > 100 µM

Q: What about the TGI [56] of the same compound?
A: > 100 µM

Q: What about the TGI [22] of the same compound?
A: > 100 µM

Q: And the TGI [57]?
A: > 100 µM

Q: What about the TGI [23] of the same compound?
A: > 100 µM

Q: And the TGI [24]?
A: > 100 µM

Q: What about the TGI [25] of the same compound?
A: > 100 µM

Q: What about the TGI [26] of the same compound?
A: > 100 µM

Q: And the TGI [27]?
A: 66.8 µM

Q: And the TGI [28]?
A: 71.1 µM

Q: What about the TGI [29] of the same compound?
A: 43.6 µM

Q: And the TGI [30]?
A: > 100 µM

Q: What about the TGI [31] of the same compound?
A: > 100 µM

Q: And the TGI [32]?
A: > 100 µM

Q: And the TGI [33]?
A: 32.9 µM

Q: And the TGI [34]?
A: > 100 µM

Q: What about the TGI [37] of the same compound?
A: > 100 µM

Q: And the TGI [39]?
A: 46.1 µM

Q: What about the TGI [40] of the same compound?
A: > 100 µM

Q: What about the TGI [41] of the same compound?
A: 30.9 µM

Q: What about the TGI [42] of the same compound?
A: > 100 µM

Q: What about the TGI [43] of the same compound?
A: > 100 µM

Q: What about the TGI [44] of the same compound?
A: > 100 µM

Q: What about the TGI [45] of the same compound?
A: 29.5 µM

Q: What about the TGI [46] of the same compound?
A: > 100 µM

Q: And the TGI [47]?
A: 42.2 µM

Q: What about the TGI [48] of the same compound?
A: 62.8 µM

Q: And the TGI [58]?
A: > 100 µM

Q: What about the TGI [49] of the same compound?
A: > 100 µM

Q: And the TGI [50]?
A: > 100 µM

Q: What about the TGI [51] of the same compound?
A: 39.3 µM

Q: What about the TGI [52] of the same compound?
A: 34.1 µM

Q: What about the TGI [53] of the same compound?
A: > 100 µM

Q: What about the TGI [54] of the same compound?
A: 79.3 µM

Q: And the TGI [55]?
A: > 100 µM
